From ChEMBL document CHEMBL1177672, “Discovery of orally available spirodiketopiperazine-based CCR5 antagonists” (Bioorg Med Chem, 2010)

What was measured:
[1] = target: C-C chemokine receptor type 5 (Homo sapiens, UniProt P51681); experiment: Antagonist activity at human CCR5 receptor expressed in CHO cells assessed as inhibition of MIP-1-alpha-stmulated calcium mobilization; type: functional, cell-based
Liver microsomes [2] = experiment: (§1) Metabolic stability in rat liver microsomes assessed as compound remaining at 0.5 mg/ml after 15 mins; type: ADME, Microsome; details: microsomes, 0.25 h
Caco-2 [3] = experiment: Apparent permeability from apical to basolateral side of human Caco-2 cells; type: ADME, cell-based
[4] = Half life in rat at 30 mg/kg, po; type: ADME, organism-based; parameters: dose 30 mg/kg, route oral; details: in vivo
[5] = Aqueous solubility of the compound; type: physicochemical; details: buffer
[6] = tested on: Human immunodeficiency virus 1; experiment: microbe, parasite or virus in culture; details: Human immunodeficiency virus 1, BAL
Description: Antiviral activity against HIV1 BAL by p24 assay

Caco-2 [7] = experiment: Apparent permeability from basolateral to apical side of human Caco-2 cells; type: ADME, cell-based
[8] = as §1; type: ADME, Microsome; details: liver microsomes, read-out: Stability
Liver microsomes [9] = experiment: Half life in rat liver microsome at 0.2 mg/ml; type: ADME
[10] = Cmax in rat at 30 mg/kg, po; type: ADME, organism-based; parameters: dose 30 mg/kg, route oral; details: in vivo
[11] = (§2) AUC in rat at 30 mg/kg, po; type: ADME, organism-based, Plasma; parameters: dose 30 mg/kg, route oral; details: plasma
Rattus norvegicus [12] = experiment: AUC in rat at 3 mg/kg, iv; type: ADME, organism-based, Plasma; parameters: dose 3 mg/kg, route intravenous; details: in vivo
[13] = Half life in rat at 3 mg/kg, iv; type: ADME, organism-based; parameters: dose 3 mg/kg, route intravenous; details: in vivo
[14] = Clearance in rat at 3 mg/kg, iv; type: ADME, organism-based; parameters: dose 3 mg/kg, route intravenous; details: in vivo
Rattus norvegicus [15] = experiment: as §2; type: ADME, organism-based, Plasma; parameters: dose 30 mg/kg, route oral; details: in vivo
[16] = Volume of distribution at steadt state in rat at 3 mg/kg, iv; details: in vivo
[17] = Oral bioavailability in rat at 30 mg/kg; type: ADME, organism-based; details: in vivo

Sequence of C-C chemokine receptor type 5 (P51681 whole entry): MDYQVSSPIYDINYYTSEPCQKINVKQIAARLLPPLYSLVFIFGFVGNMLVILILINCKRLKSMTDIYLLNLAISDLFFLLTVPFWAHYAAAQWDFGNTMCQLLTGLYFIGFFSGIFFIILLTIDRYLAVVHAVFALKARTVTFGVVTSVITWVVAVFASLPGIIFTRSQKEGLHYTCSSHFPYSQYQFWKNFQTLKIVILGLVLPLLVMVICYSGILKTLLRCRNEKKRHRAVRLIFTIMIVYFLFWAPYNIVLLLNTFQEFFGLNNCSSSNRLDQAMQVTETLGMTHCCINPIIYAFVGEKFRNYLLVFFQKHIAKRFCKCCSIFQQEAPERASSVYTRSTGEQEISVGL

SMILES | IC50 [1] | Stability (Liver microsomes [2]) | t1/2 (Liver microsomes [9]) | other results
CCCCN1C(=O)[C@H](CC2CCCCC2)NC(=O)C12CCN(Cc1ccc(C(=O)Nc3ccccc3)cc1)CC2.Cl | 57 nM | 29% |  | 
CCCCN1C(=O)[C@H](CC2CCCCC2)NC(=O)C12CCN(Cc1ccc(Oc3ccc(OC)cc3)cc1)CC2.Cl | 130 nM | 34% |  | 
CCCCN1C(=O)[C@H](CC2CCCCC2)NC(=O)C12CCN(Cc1ccc(Oc3ccc(C(=O)NC)cc3)cc1)CC2.Cl | 33 nM | 4% |  | Papp (Caco-2 [3]): 3.51 ×10⁻⁶ cm/s; half-life [4]: 72.7 min; solubility [5]: 6 µM
CCCCN1C(=O)[C@H](CC2CCCCC2)NC(=O)C12CCN(Cc1ccc(Oc3ccc(NS(C)(=O)=O)cc3)cc1)CC2.Cl | 40 nM | 15% |  | 
CCCCN1C(=O)[C@H](CC2CCCCC2)NC(=O)C12CCN(Cc1ccc(Oc3ccc(S(N)(=O)=O)cc3)cc1)CC2.Cl | 28 nM | 24% |  | IC50 [6]: 10 nM
CCCCN1C(=O)[C@H](CC2CCCCC2)NC(=O)C12CCN(Cc1ccc(Oc3ccc(C(=O)O)cc3)cc1)CC2.Cl |  |  |  | Papp (Caco-2 [3]): 11 ×10⁻⁶ cm/s; Papp (Caco-2 [7]): 16.8 ×10⁻⁶ cm/s; remaining at 0.25 h [8]: 22%; solubility [5]: 29 µM
CCCCN1C(=O)[C@H](CC2CCCCC2)NC(=O)C12CCN(Cc1ccc(S(=O)(=O)c3ccccc3)cc1)CC2.Cl | 86 nM | 19% |  | 
CCCCN1C(=O)[C@H](CC(C)(C)C)NC(=O)C12CCN(Cc1ccc(Oc3ccccc3)cc1)CC2.Cl | 79 nM |  | 12 min | 
CCCCN1C(=O)[C@H](CC2CCCCC2)NC(=O)C12CCN(Cc1ccc(Sc3ccccc3)cc1)CC2.Cl | 170 nM | 38% |  | 
CCCCN1C(=O)[C@H](CC2CCCCC2)NC(=O)C12CCN(CCc1ccc(Oc3ccccc3)cc1)CC2 | > 3000 nM |  |  | 
CCCCN1C(=O)[C@H](CC2CCCCC2)NC(=O)C12CCN(Cc1nc(-c3ccccc3)oc1C)CC2 | 450 nM |  |  | 
CCCCN1C(=O)[C@H](CC2CCCCC2)NC(=O)C12CCN(Cc1ccc(C(=O)c3ccccc3)cc1)CC2.Cl | 81 nM | 23% |  | 
CCCCN1C(=O)[C@H](CC2CCCCC2)NC(=O)C12CCN(Cc1ccc(Oc3ccc(F)cc3)cc1)CC2.Cl | 92 nM | 53% |  | 
CCCCN1C(=O)[C@H](CC2CCCCC2)NC(=O)C12CCN(Cc1ccc(Oc3ccc(C)cc3)cc1)CC2.Cl | 79 nM | 48% |  | 
CCCCN1C(=O)[C@H](CC2CCCCC2)NC(=O)C12CCN(Cc1ccc(Oc3ccc(O)cc3)cc1)CC2.Cl | 42 nM | 22% |  | Papp (Caco-2 [3]): 0.33 ×10⁻⁶ cm/s; Cmax [10]: 100 ng/mL; half-life [4]: 205 min; Papp (Caco-2 [7]): 0.14 ×10⁻⁶ cm/s; AUC [11]: 195 ng·h/mL; solubility [5]: < 5 µM
CCCCN1C(=O)[C@H](CC2CCCCC2)NC(=O)C12CCN(Cc1ccc(-c3cccnc3)cc1)CC2.Cl.Cl | 71 nM | 29% |  | 
CCCCN1C(=O)[C@H](CC(C)C)NC(=O)C12CCN(Cc1ccc(Oc3ccccc3)cc1)CC2.Cl |  |  | 7.1 min | 
CC(C)CC1NC(=O)C2(CCN(Cc3ccc(Oc4ccccc4)cc3)CC2)N(CC(C)C)C1=O.Cl (racemic) | 330 nM |  | 15 min | 

SMILES | IC50 [1] | Stability (Liver microsomes [2]) | t1/2 (Liver microsomes [9]) | other results
CCCCN1C(=O)C(CC(=O)OCc2ccccc2)NC(=O)C12CCN(Cc1ccc(Oc3ccccc3)cc1)CC2 (racemic) | 590 nM |  |  | 
CCCCN1C(=O)C(CCCC2CCCCC2)NC(=O)C12CCN(Cc1ccc(Oc3ccccc3)cc1)CC2.Cl (racemic) | > 3000 nM |  | 23 min | 
CCCCN1C(=O)C(CC2CCCC2)NC(=O)C12CCN(Cc1ccc(Oc3ccccc3)cc1)CC2.Cl (racemic) | 52 nM |  | 20 min | 
C/C=C/CN1C(=O)C(CC(C)C)NC(=O)C12CCN(Cc1ccc(Oc3ccccc3)cc1)CC2.Cl (racemic) | 69 nM |  | 14 min | 
CC#CCN1C(=O)C(CC(C)C)NC(=O)C12CCN(Cc1ccc(Oc3ccccc3)cc1)CC2.Cl (racemic) | 54 nM |  | 15 min | 
CC(C)CC1NC(=O)C2(CCN(Cc3ccc(Oc4ccccc4)cc3)CC2)N(Cc2ccccc2)C1=O (racemic) | 300 nM |  |  | 
CCCCN1C(=O)C(CCC)NC(=O)C12CCN(Cc1ccc(Oc3ccccc3)cc1)CC2.Cl (racemic) | 50 nM |  | 22 min | 
CCCCN1C(=O)C(CC2CCCCC2)NC(=O)C12CCN(Cc1csc(-c3ccccc3)n1)CC2 (racemic) | 570 nM |  |  | 
CCCCN1C(=O)C(CC(=O)O)NC(=O)C12CCN(Cc1ccc(Oc3ccccc3)cc1)CC2 (racemic) | > 3000 nM |  |  | 
CCCCN1C(=O)C(CC2CCCCC2)NC(=O)C12CCN(c1ccc(C(=O)OCC)cc1)CC2 (racemic) | > 3000 nM |  |  | 
CCCCN1C(=O)C(CC2CCCCC2)NC(=O)C12CCN(C(=O)OCc1ccccc1)CC2 (racemic) | 3000 nM |  |  | 
CCCCN1C(=O)C(CC2CCCCC2)NC(=O)C12CCN(Cc1c[nH]c(-c3ccccc3)n1)CC2 (racemic) | 160 nM |  |  | 
CCCCN1C(=O)C(CC2CCCCC2)NC(=O)C12CCN(Cc1c(C)nn(-c3ccccc3)c1C)CC2.Cl.Cl (racemic) | 35 nM | 23% |  | 
CCCCN1C(=O)C(CC2CCCCC2)NC(=O)C12CCN(Cc1ccc(Oc3ccccc3)nc1)CC2.Cl.Cl (racemic) | 21 nM | 10% |  | 
CCCCN1C(=O)C(CC2CCCCC2)NC(=O)C12CCN(Cc1ccc(Oc3ccccc3)cc1)CC2.Cl (racemic) |  |  | 24 min | Papp (Caco-2 [3]): 0.15 ×10⁻⁶ cm/s; AUC (Rattus norvegicus [12]): 400 ng; half-life [13]: 19.9 min; Papp (Caco-2 [7]): 0.27 ×10⁻⁶ cm/s; clearance [14]: 113 mL/min/kg; AUC [11]: 74.4 ng·h/mL; solubility [5]: < 5 µM
CCCCN1C(=O)C(CC(C)C)NC(=O)C12CCN(Cc1ccc(Oc3ccccc3)cc1)CC2.Cl (racemic) |  |  | 12 min | Papp (Caco-2 [3]): 1.51 ×10⁻⁶ cm/s; AUC (Rattus norvegicus [12]): 372 ng; Cmax [10]: 100 ng/mL; half-life [13]: 13 min; half-life [4]: 75.7 min; Papp (Caco-2 [7]): 2.23 ×10⁻⁶ cm/s; AUC (Rattus norvegicus [15]): 290 ng·h/mL; solubility [5]: 14 µM
CC(C)CC1NC(=O)C2(CCN(Cc3ccc(Oc4ccccc4)cc3)CC2)N(CCC(C)O)C1=O.Cl (racemic) | > 3000 nM |  | 12 min | Cmax [10]: 7200 ng/mL; half-life [13]: 11.1 min; Vd [16]: 0.145 L/kg; half-life [4]: 48.4 min; bioavailability [17]: 34.1%; clearance [14]: 16 mL/min/kg; AUC [11]: 10500 ng·h/mL
CCCCN1C(=O)C(CC2CCCCC2)NC(=O)C12CCN(Cc1ccc(OC)cc1)CC2.Cl (racemic) |  |  | 8.3 min | 
